The values below are quoted from earlier work in publication PMC8843100, “Development of newly synthesised quinazolinone-based CDK2 inhibitors with potent efficacy against melanoma” (Journal of Enzyme Inhibition and Medicinal Chemistry, 2022).

This data set deals with cyclin-dependent kinase2. Further details: method as in PMID 11354366. As to conditions: CDK2; cited from earlier work.

With `CC(C)(C)Nc1nc(C(F)(F)F)nc2ccc(-c3cccc(N)c3)cc12` [DIN-234325], the IC50 – broadly, the concentration that gives 50% inhibition – is 600 ± 100 nM.
